The values below come from US20040018259A1, “Use of at least one extract of a plant of the genus lannea in a cosmetic or dermopharmaceutical composition” (priority 1999, published 2004).

Assay [1] concerns the target T1, elastase of the abdominal salivary gland (serine protease) (Sus scrofa, UniProt P00772). The experiment in a line: In tubo antielastase test, synthetic chromogenic substrate. In kind it is biochemical. Here is the method:
(§1) The in tubo tests are carried out with an elastase of the abdominal salivary gland (serine protease) using two types of substrate: a synthetic color-forming (chromogenic) substrate and a natural substrate consisting of elastin connected with Congo red.
(§2) Incubation lasts 30 minutes at room temperature and coloration is measured at 410 nm and 520 nm.
(§3) The inhibition test standard tested for comparison is 1 antitrypsin.

Assay [2] addresses T1, elastase of the abdominal salivary gland (serine protease). Briefly: In tubo antielastase test, elastin connected with Congo red. In kind it is biochemical. The method, then: as §1, §2, §3
Assay [3] concerns singlet oxygen on type I collagen. Briefly: Anti-singlet oxygen effect on type I collagen (viscosity, riboflavin + UV-A). From the text:
Collagen is a dermal glycoprotein which is very sensitive to the activity of the reactive form of oxygen (or FRO). It was shown that singlet oxygen (O2^1) produces troublesome crosslinkings among the proteins.
The principle of this test is based on measurement of the viscosity of an aqueous solution of type I collagen in the presence of a photochemical O2^1-evolving system.
O2^1, which is produced by riboflavin in the presence of UV-A, causes the collagen to gel in the presence of glucose which is reflected in an increase in viscosity. This effect is inhibited by the molecules which expose O2^1, such as thiourea or aminoguanidine for example.
Viscosity is evaluated by measurement of the throughflow time through the capillary of a “Cannon Fenske” viscosimeter.

The test system of the next assay is B16 melanocytes. Briefly: In vitro melanogenesis inhibition test on B16 melanocytes. In kind it is cell-based. The note with it: 0.3% dose. The method, then: In Vitro Melanogenesis Inhibition Test on B16 Melanocytes inoculation of the melanocytes into a growth substrate, incubation for three days at 37° C., CO2=5%, introduction of the Lannea coromandelica extracts into a medium which activates melanogenesis, […]
spectrophotometric dosing of the proteins (co-called Bradford method) and the melanin (DO at 475 nm) into the homogenized melanocytes, calculation of an activity index which corresponds to the ratio (protein level/melanin level) for an optimal dose of extract.
It follows that the higher the index (>1), the greater the ability to inhibit melanogensis.

A short description of assay [4]: Anti-HO° test with deoxyribose (Fenton reaction) without EDTA. Conditions: for percentage inhibition of the hydroxylation rate: average of 2 tests. The method, then:
(§4) Anti-HO°-Test with Deoxyribose (Fenton Reaction) These tests evaluate the ability of an active substance to eliminate (“bait”) HO° produced by the Fenton reaction (H2O2 in the presence of iron). HO° can be exposed by deoxyribose. Deoxyribose is an essential compound of ADN which is oxidized and then fragmented by HO°. The oxidation product of deoxyribose is exposed by condensation with thiobarbituric acid (measurement of optical density at 532 nm). This test is carried out with and without EDTA in order to determine the ability of the extract to form active complex compounds with iron (“[…] effect”).

Assay [5] can be described thus: Anti-anion superoxide test (hypoxanthine/xanthine oxidase) with NBT. In kind it is biochemical. The note with it: for percentage inhibition, test with NBT: average of 2 tests. From the text: (§5) *Anti-Anion Superoxide Effect (O2.^−) O2.^− is produced during the oxidizing stress through the introduction of an enzyme, xanthine oxidase (XOD), which degrades the excess hypoxanthine (HX) during an interruption in or disruption of the energy metabolism in living tissue. O2.^− is toxic, particularly because of its ability to form hydrogen peroxide (H2O2)—which in turn forms a source of HO^• through the Fenton reaction—either spontaneously or in the presence of Superoxid-Dismutase (SOD). The biochemical tests are carried out with HX in the presence of XOD and the O2.^− are exposed by luminol or a mixture of luminol and peroxidase, which exposes O2.^− and H2O2, or by a tetrazolium salt (NBT) which forms a red compound evaluated at 540 nm.

The nature of assay [6]: Anti-anion superoxide test (hypoxanthine/xanthine oxidase) with luminol. In kind it is biochemical. The note with it: for percentage inhibition, test with luminol: average of 2 tests.
From the text: as §5

Assay [7] is described as follows: Anti-DPPH° test (anti-radical effect). Conditions: for level of leuco compound formed (in % in relation to the control): average of 2 tests. From the text: a) DPPH° Test DPPH (diphenyl picryl hydrazyl) is a stable, free, violet-colored radical which is modified in its leuco compound by the substances that trap the free radicals (=scavenger or bait effect). The result is expressed in leuco compound levels which are formed in the presence of the active agent (in % in relation to the control with no active principle).
For orientation: DPPH is a stable violet radical that fades when it is reduced.

The nature of assay [8]: Anti-HO° test with deoxyribose (Fenton reaction) with EDTA. The note with it: for percentage inhibition of the hydroxylation rate: average of 2 tests. Here is the method:
as §4

Assay [9] is described as follows: Anti-anion superoxide test (hypoxanthine/xanthine oxidase) with luminol + microperoxidase. Conditions: for percentage inhibition, test with luminol + microperoxidase: average of 2 tests. In kind it is biochemical.
From the text: as §5

In a further assay the test system is tyrosinase. Briefly: In tubo tyrosinase inhibition test (L-DOPA, dopachromium DO at 475 nm). In kind it is biochemical. Conditions: extract concentration producing 50% inhibition of the enzyme activity. The source says: In Tubo Tyrosinase Inhibition Test mixing of the L-DOPA with tyrosinase and the Lannea coromandelica extracts to be tested, recording of the DO at 475 nm of the dopachromium, calculation of the kinetics, then the CI50 (extract concentration which produces a 50% inhibition of the enzyme activity).

Assay [10] concerns clostridium hystoliticum collagenase. Briefly: In tubo anticollagenase test (FALGPA substrate). The format is biochemical. Here is the method: b) In Tubo Anticollagenase Test
The tests are carried out with a clostridium hystoliticum collagenase and a synthetic chromogenic substrate: FALGPA. Incubation lasts 3O minutes at room temperature and optical density is measured at 324 nm. The inhibition test standard tested for comparison is cysteine.
The results are set out in Table X below which emphasizes the anticollagenase activity of the Lannea coromandelica extracts (results in percentage inhibition).

Another assay concerns human fibroblasts. The experiment in a line: Anti-UVA cytophotoprotection test on human fibroblasts. In kind it is cell-based. Conditions: UV-A 15 J/cm^2. From the text: d) Anti-UVA-Cytophotoprotection Test on Human Fibroblasts
This in vitro test evaluates the ability of Lannea coromandelica extracts according to the invention to afford human fibroblasts cytophotoprotection against UV-A.
The UV-As are selected as a study model because they penetrate into the inner skin and introduce an oxidizing stress into the skin which is reflected in particular in a lipoperoxidation of the cytoplasmic membrane. The lipoperoxides formed split up into malonaldialdehydes (MDAs) which are responsible for the crosslinking of numerous biological molecules, such as proteins for example (enzyme inhibition), and nuclein bases (mutagenesis).
Fibroblasts are inoculated into a nutrient medium defined with calf foetus serum. The Lannea coromandelica extract was added 2 to 3 days after inoculation. After incubation for 2 to 3 days at 37° C./CO2=5%, the nutrient medium is replaced by a salt solution and the fibroblasts are exposed to a dose of UV-A (15 J/cm^2).
After the exposure, the MDA level in the salt solution floating on the surface is determined and the protein level in the fibroblasts is measured. The MDA level is determined by reaction to thiobarbituric acid while the protein levels are determined by the Bradford method.

T1 sequence (P00772 27-266): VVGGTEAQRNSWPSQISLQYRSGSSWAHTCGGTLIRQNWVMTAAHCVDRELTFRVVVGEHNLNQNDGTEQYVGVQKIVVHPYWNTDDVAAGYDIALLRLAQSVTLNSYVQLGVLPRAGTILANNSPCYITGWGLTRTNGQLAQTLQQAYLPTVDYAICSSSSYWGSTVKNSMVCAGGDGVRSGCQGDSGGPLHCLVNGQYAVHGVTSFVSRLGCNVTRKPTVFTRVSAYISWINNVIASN

In the case of “1α antitrypsin: inhibition test standard tested for comparison in the antielastase test”, the “Cl50 antielastase, synthetic substrate” value in assay [1] was “NB: Cl50 in % by wt./vol. for 1α antitrypsin = 0.04%”. Moreover, the “Cl50 antielastase, elastin connected with Congo red” value in assay [2] is “NB: Cl50 in % by wt./vol. for 1α antitrypsin = 0.04%”.

As for `N=C(N)NN` [Aminoguanidine, aminoguanidine], in assay [3], the “Cl50 photoprotection of type I collagen” value was 0.004 % (wt./vol.). In addition, the “photoprotective effect on type I collagen, percentage inhibition” value in assay [3] (dose 0.005% (wt./vol.)) was 57%; in assay [3] (dose 0.015% (wt./vol.)), 75%.

`OC[C@H]1O[C@@H](Oc2ccc(O)cc2)[C@H](O)[C@@H](O)[C@@H]1O` [Arbutin]: in the assay with B16 melanocytes, the “I = activity index on B16 melanocytes (protein level/melanin level)” value is “I = 3.14 (for the 0.3% dose)”.

Take `O=C1O[C@H]([C@@H](O)CO)C(O)=C1O` [Ascorbic acid]: in assay [4], the “Cl50 Fenton reaction without EDTA” value is 0.9 % (wt./vol.). For the same compound, the “percentage inhibition of the hydroxylation rate” value in assay [4] (dose 0.01% (wt./vol.)) turned out to be 5%; in assay [4] (dose 0.03% (wt./vol.)), 75%; in assay [4] (dose 0.1% (wt./vol.)) it was 2%; in assay [4] (dose 1% (wt./vol.)), 56%; in assay [8] (dose 0.1% (wt./vol.)) it was 45%; in [8] (dose 1% (wt./vol.)) it was 73%. Further, the “Cl50 test with NBT” value in assay [5] is given as 0.5909 % (wt./vol.). The “percentage inhibition, test with NBT” value in assay [5] (dose 0.01% (wt./vol.)) came out at 15%; in assay [5] (dose 0.1% (wt./vol.)) it was 32%; in assay [5] (dose I % (wt./vol.)), 65%. Also, in [6], the “Cl50 test with luminol” value is given as 0.0006 % (wt./vol.). Also, the “percentage inhibition, test with luminol” value amounted to 5% in [6] (dose 0.0001% (wt./vol.)), 92% in [6] (dose 0.001% (wt./vol.)) and 100% in assay [6] (dose 0.01% (wt./vol.)). Further, the “Cl50 anti-DPPH° test” value in assay [7] is given as 0.0013 % (wt./vol.). Also, the “level of leuco compound formed (in % in relation to the control)” value is reported as 49% in assay [7] (dose 0.001% (wt./vol.)) and 75% in [7] (dose 0.01% (wt./vol.)). The “Cl50 Fenton reaction with EDTA” value in assay [8] is 0.26 % (wt./vol.). Also, in [9], the “Cl50 test with luminol + microperoxidase” value is on record as 0.0058 % (wt./vol.). In addition, the results for the “percentage inhibition, test with luminol + microperoxidase” value in [9] (dose 0.001% (wt./vol.)) and in [9] (dose 0.01% (wt./vol.)) were 0% and 94%, respectively.

As for `Oc1ccc(O)cc1` [Hydroquinone], the “Cl50 in tubo tyrosinase inhibition” value with tyrosinase is “Cl50 = 0.025% by wt./vol”.

Turning to `N[C@@H](CS)C(=O)O` [cysteine], the Cl50 anticollagenase result in assay [10] is “NB: Cl50 in % by wt./vol. of cysteine = 2.4%”.

With Vitamin E, in the assay with human fibroblasts (0.0003%), the “MDA level in % in relation to the irradiated control” value was 21% and the “Proteins in % in relation to the non-irradiated control” value is reported as 97%. In the assay with human fibroblasts (0.001%), the “MDA level in % in relation to the irradiated control” value was 8% and the “Proteins in % in relation to the non-irradiated control” value came to 98%.
